Columns and labels:
Format in all cases: in vivo
Puccinia recondita [1] = assay: Action against Puccinia recondita on wheat, curative foliar spray (test b); conditions: wheat plants, 200 ppm spray 24 hours after infection (curative), evaluated after 1 day + 7 days
Method: 2. Action against Puccinia recondita on wheat b) After 1 weeks cultivation, wheat plants are infected with a spore suspension After 24 hours, the infected plants are sprayed to run off with a spray mixture (200 ppm active ingredient/20% acetone/0.25% Triton […]. Fungal attack is evaluated after incubation for 1 day at 95-100% relative humidity at 20° C. followed by 7 days at 25° C. at 50% relative humidity to determine the degree of curative activity provided by the compound.

Erysiphe graminis [2] = assay: Action against Erysiphe graminis on wheat, protectant foliar spray (test a); conditions: wheat plants, 200 ppm spray 2 hours before infection (protectant), evaluated after 8 days
Method: 1. Action against Erysiphe graminis on wheat. a) After 1 week cultivation, wheat plants are sprayed to run off with a spray mixture (200 ppm active ingredient/20% acetone/0.25% Triton […]). After 2 hours, the treated plants are infected with ascospores shaken from inoculum plants. Fungal attack is evaluated after incubation for 8 days at 22° C. at 50% relative humidity to determine the protection given by the compound.

Puccinia recondita [3] = assay: Action against Puccinia recondita on wheat, protectant foliar spray (test a); conditions: wheat plants, 200 ppm spray 2 hours before infection (protectant), evaluated after 1 day + 7 days
Method: 2. Action against Puccinia recondita on wheat a) After 1 weeks cultivation, wheat plants sprayed to run off with a spray mixture (200 ppm active ingredient/20% acetone/0.25% Triton […]). After 2 hours, the treated plants are infected with a spore. Fungal attack is evaluated after incubation for 1 day at 95-100% relative humidity at 20° C. followed by 7 days at 25° C. at 50% relative humidity to determine the protection given by the compound.

Erysiphe graminis [4] = assay: Action against Erysiphe graminis on wheat, curative foliar spray (test b); conditions: wheat plants, 200 ppm spray 24 hours after infection (curative), evaluated after 8 days
Method: 1. Action against Erysiphe graminis on wheat. b) After 1 weeks cultivation, wheat plants are infected with ascospores shaken from inoculum plants. After 24 hours, the wheat plants are sprayed with a spray mixture (200 ppm active ingredient/ 20% acetone/0.25% Triton […]). Fungal attack is evaluated after incubation for 8 days at 22° C. at 50% relative humidity to determine the degree of curative activity provided by the compound.

Puccinia recondita [5] = assay: Action against Puccinia recondita on wheat, curative soil drench, systemic (test c); conditions: wheat plants, 200 ppm soil drench 24 hours after infection (systemic), evaluated after 1 day + 7 days
Method: 2. Action against Puccinia recondita on wheat c). After 1 weeks cultivation, wheat plants are infected with a spore suspension After 24 hours, the soil in which the wheat plants are growing was drenched with the drench mixture (200 ppm active ingredient/20% acetone/0.25% Triton […]). Fungal attack is evaluated after incubation for 1 day at 95-100% relative humidity at 20° C. followed by 7 days at 25° C. at 50% relative humidity to determine the degree of curative activity provided by the compound.

Erysiphe graminis [6] = assay: Action against Erysiphe graminis on wheat, curative soil drench, systemic (test c); conditions: wheat plants, 200 ppm soil drench 24 hours after infection (systemic), evaluated after 8 days
Method: 1. Action against Erysiphe graminis on wheat. c) After 1 weeks cultivation, wheat plants are infected with ascospores shaken from inoculum plants. After 24 hours, the soil in which the wheat plants are growing is drenched with the drench mixture (200 ppm active ingredient/20% acetone/0.25% Triton […]). Fungal attack is evaluated after incubation for 8 days at 22° C. at 50% relative humidity to determine the degree of curative activity provided by the compound.

Measured: control of fungal infection

CO[C@H]1[C@@H](O)[C@H](O)[C@H](OC[C@@]23C[C@@H]4[C@H](C)CC[C@H]4[C@@]4(C=O)CC2C=C(C(C)C)[C@@]34C(=O)O)O[C@@H]1C [sordarin, Sordarin]
100%: all assays above
